The test system of this test is A549 cells. Put plainly: Transfection of A549 cells with POP:cholesterol vesicles complexed to pCMV-sport-β-gal plasmid (β-galactosidase activity, absorbance 420 nm). It counts as cell-based. As to conditions: 50 μM chloroquine added during transfection with POP:cholesterol vesicle-plasmid complexes. As to the method:
Transfection experiments were carried out with the endotoxin free pCMV-sport-β-gal plasmid. 96-well plates were seeded with A549 calls (10,000 cells well^−1, 50,000 cells mL^−1) and incubated overnight with DMEM/F10+10% foetal calf serum (FCS)-Life Sciences, UK in 2% CO2 at 37° C. […] The mixture was incubated for 4 h (2% CO2, 37° C.) after which the media and POP-plasmid complexes were removed and replaced with DMEM/F10+10% FCS (0.2 mL). Cells were fed daily (DMEM/F10+10% FCS) over a 48 h period at the end of which they were lysed by the addition of 0.05 mL triton X-100 buffer (0.1% triton X-100, 0.25M tris hydrochloride, pH=8.0). The cells were then frozen at −70° C. and thawed at room temperature and 0.5% bovine serum albumin in phosphate buffered saline (0.05 mL) added to each well. This was followed by the addition of 0.15 mL ONPG (o-nitrophenyl β-D-galactopyranoside) in buffer (0.06M sodium dibasic phosphate, 0.001M magnesium chloride, 0.01M potassium chloride, 0.05M β-mercaptoethanol, pH=8.0). β-galactosidase activity was estimated by measuring the absorbance (420 nm) on a microtitre plate reader.

The record followed here is patent publication US6576254B1, “Polyamino acid vesicles” (University of Strathclyde, priority 1998, dated 2003).

Regarding `CCN(CC)CCCC(C)Nc1ccnc2cc(Cl)ccc12` (stereo not shown) [chloroquine], the “Effect on transfection levels” value is “increase transfection levels”.
